This note sets out measurements from patent US20110289042A1, “Integrative Framework for Three-Stage Integrative Pathway Search” (BOARD OF TRUSTEES OF MICHAGN STATE UNIVERSITY, priority 2005, published 2011).

Assay type in all cases: cell-based, human
The subject of one data set is phospho-P65 NF-κB. Description: phospho-P65 NF-κB by western blot in HepG2 cells. The protocol: Therefore, we tested the possibility of this link in HepG2 cells by adding rottlerin, an inhibitor of PKC-δ, and measuring the protein expression and activity levels of NF-κB with western blots. […] This confirmed the connection between TNF-α and PKC-δ in the reconstructed network (model). To determine whether PKC-δ is involved in mediating the activation of NF-κB by TNF-α, PKC-δ was inhibited by a PKC-δ specific inhibitor rottlerin. The activity of NF-κB was measured with western blots by detecting the levels of phosphorylated NF-κB p65 at serine 536 [Sakurai et al. 2003]. As shown in FIG. 6(A), the activation of NF-κB p65 was attenuated by rottlerin. […] Therefore, PKC-δ was appropriately identified by the model to be an important factor in mediating the TNF-α signaling pathway.
PKC-δ was inhibited with rottlerin (BIOMOL Research Laboratories, Plymouth Meeting, Pa.). […] After 48 hours of exposure, cells were lysated with 1× SDS sample buffer. After ultrasonication for 11-15 seconds, the suspension was centrifuged (10,000 relative centrifugal force (rcf), 5 minutes). The supernatant was run on 7.5% gradient SDS-PAGE, transferred to a nitrocellulose membrane, blocked for 1 hour at room temperature with 5% milk protein solution in Tris buffered saline with Tween 20, and exposed to monoclonal anti-phospho NF-κB (65 kDa subunit) (Cell Signaling Technology Inc., MA) at 1:2000 dilution overnight at 4° C. The blot was washed and put in rabbit anti-mouse IgG secondary antibody (1:2000 dilution in TBS-Tween) for 1 hour. The blot was washed thrice each in TBS-Tween and TBS and developed using Supersignal West Femto Substrate (Pierce Chemicals), and imaged with Bio-Rad imager.
Bcl-2 was inhibited with HA14-1 (BIOMOL Research Laboratories, Plymouth Meeting, Pa.) at 10 μM. The phospho-NF-κB p65 was detected with monoclonal anti-phospho NF-κB (65 kDa subunit) (Cell Signaling Technology Inc., Danvers, Mass., US) at 1:2000 dilution.
In general terms: In western blotting, separated proteins are transferred to a membrane and probed.

For another data set, the system named is Hep G2/C3A cells. The protocol: Cell Culture. 1 million Hep G2/C3A cells (ATCC, Manassas, Va.) were seeded into each well of 6-well culture plate. The cells were kept in 2 mL of medium containing Dulbecco's modified Eagles medium (Invitrogen, Carlsbad, Calif.) supplemented with 10% fetal bovine serum (ATCC) and 2% Penicillin-streptomycin (Invitrogen). Cells were incubated at 37° C. and in 10% CO2 atmosphere. After cells reached confluence, the medium was replaced with 2 mL of treatment of FFA including palmitate (700 μM), oleate (700 μM), linoleate (700 μM) and TNF-α (0, 20, 100 ng/mL′)
Cytotoxicity measurement. […] Cells were washed with phosphate buffered saline (PBS) and kept in 1% Triton-X-100 in PBS for 24 h at 37° C. Cell lysate was then collected, vortexed for 15 seconds, and centrifuged at 7000 rpm for 5 minutes. Cytotoxicity detection kit (Roche Applied Science, Indianapolis, Ind.) was used to measure the LDH release. LDH released was normalized to the total LDH (released+lyzed).

The test system of data set [1] is stearoyl-CoA desaturase (SCD). The data set can be described thus: SCD protein expression by western blot in HepG2 cells. On the procedure:
The protein expression level of SCD in HepG2 cells cultured in control (HepG2 medium), palmitate, oleate, palmitate+oleate, mediums were measured as a function of TNF-α with western blots.

For another data set, the system named is Bcl-2. Description: Bcl-2 protein expression by western blot in HepG2 cells.
The subject of the next data set is PKC-δ. Description: PKC-δ expression by western blot in HepG2 cells. As to conditions: TNF-α 20 and 100 ng/mL; control, palmitate and oleate cultures. On the procedure:
PKC-δ Inhibiting Analysis. The levels of PKC-δ in HepG2, palmitate (700 μM), oleate (700 μM) and palmitate (400 μM)+oleate medium (300 μM) with TNF-α supplementation of 0, 20, 100 ng/mL were detected with western blotting using anti-PKC-δ antibody (Santa Cruz Biotechnology, Inc., Santa Cruz, Calif., US) at 1:2000 dilution.

Another data set deals with SCD gene expression. Description: SCD gene expression by cDNA microarray in HepG2 cells. The settings on record: TNF-α in HepG2 cells; log 2(treatment/control). The protocol:
Gene expression profiling. Cells were cultured in 10 cm tissue culture plates until confluence and then exposed to different treatments. RNA was isolated with Trizol reagent. The gene expression profiling was obtained with cDNA microarray. Analyses were done at the Van Andel Institute, Grand Rapids, Mich. The protocols are available online at (http://microarray.vai.org/protocols/). There were two biological replicates for each condition and each replicate was measured with the Cy3 and Cy5 dyes.

Read-outs that look alike come from different tables or passages of the source.

Description for Bcl-2: Cells cultured in mediums of HepG2, Palmitate, Oleate, Palmitate (400 μM)+Oleate medium (300 μM) were lysated as described before. The protein samples were run on 10-20% gradient SDS-PAGE. Bcl-2 was probed with Bcl-2 antibody (1:1000) (Cell Signaling Technology, Inc., Danvers, Mass., US) as the primary antibody and goat anti-rabbit IgG as the second antibody at 1:1000 dilution.

`CCOC(=O)C1=C(N)Oc2ccc(Br)cc2C1C(C#N)C(=O)OCC` (stereo not shown) [HA14-1]: the “activation of phospho-P65 NF-κB” value with phospho-P65 NF-κB (10 μM, control, palmitate, oleate and palmitate+oleate co-supplementation cultures) is “attenuated the activation of phospho-P65 NF-κB”.

On to `CC(=O)N[C@@H](CS)C(=O)O` [N-acetyl cysteine], for which, in the data set with Hep G2/C3A cells (co-supplementation of 10 mM), the “LDH release in palmitate culture” value is on record as “reduced LDH release”. Besides, the “SCD protein expression in palmitate culture” value in data set [1] (co-supplementation of 10 mM) is reported as “prevented the SCD down-regulation”.

For `O=C1Nc2ccc3ncsc3c2/C1=C/c1cnc[nH]1` [PKR inhibitor], the LDH release in the data set on Hep G2/C3A cells (PKR inhibitor 6 μM in control culture medium, 3% without inhibitor) was determined as 25%. In addition, in the data set with Bcl-2 (6 μM in culture medium of control), the Bcl-2 expression entry is listed as “decreased the Bcl-2 expression”.

In the case of `CC(C)(Oc1ccc(C2CC2(Cl)Cl)cc1)C(=O)O` (stereo not shown) [ciprofibrate], in the data set with Hep G2/C3A cells (6 hours pretreatment followed by 48 hours co-supplementation of 50 μM, palmitate culture), the “LDH release in palmitate culture” value is on record as “significantly decrease LDH release”.

As for `CC(=O)c1c(O)c(C)c(O)c(Cc2c(O)c3c(c(C(=O)/C=C/c4ccccc4)c2O)OC(C)(C)C=C3)c1O` [rottlerin], the “increase of LDH release in the palmitate cultures” value in the data set on Hep G2/C3A cells (rottlerin added to palmitate cultures) is “up to 25%”. In addition, the “TNF-α-induced activation of phospho-P65 NF-κB” value with phospho-P65 NF-κB (rottlerin 5 μM, 0, 20 or 100 ng/mL TNF-α) is reported as “this activation was attenuated”.

As to TNF-α, the cytotoxicity entry in the data set on Hep G2/C3A cells is “cytotoxic”; with Hep G2/C3A cells (record 2), “cytoprotective”. Besides, in the data set on Hep G2/C3A cells (TNF-α in control culture), the “LDH release in control culture” value was “did not affect LDH release”. The SCD protein expression entry in data set [1] (TNF-α, control, oleate and co-supplementation cultures) is recorded as “decreased the expression of SCD”. The “phospho-P65 NF-κB” value in the data set with phospho-P65 NF-κB (TNF-α 0, 20 or 100 ng/mL) is on record as “activated phospho-P65 NF-κB”. Further, in the data set with Bcl-2 (TNF-α 20-100 ng/mL, control, palmitate and oleate cultures), the Bcl-2 expression result was “down-regulated”. Also, the “expression of PKC-δ 41 kDa catalytically active fragment” value in the data set on PKC-δ is on record as “increased”. For the same compound, the “gene expression of SCD” value in the data set on SCD gene expression is “upregulated”.
